From ChEMBL document CHEMBL5104127, “Design and preparation of N-linked hydroxypyridine-based APJ agonists” (Bioorg Med Chem Lett, 2022) come the findings set out here.

For one series, the target named is T1, Apelin receptor (Homo sapiens, UniProt P35414).
T1 sequence (P35414 whole entry): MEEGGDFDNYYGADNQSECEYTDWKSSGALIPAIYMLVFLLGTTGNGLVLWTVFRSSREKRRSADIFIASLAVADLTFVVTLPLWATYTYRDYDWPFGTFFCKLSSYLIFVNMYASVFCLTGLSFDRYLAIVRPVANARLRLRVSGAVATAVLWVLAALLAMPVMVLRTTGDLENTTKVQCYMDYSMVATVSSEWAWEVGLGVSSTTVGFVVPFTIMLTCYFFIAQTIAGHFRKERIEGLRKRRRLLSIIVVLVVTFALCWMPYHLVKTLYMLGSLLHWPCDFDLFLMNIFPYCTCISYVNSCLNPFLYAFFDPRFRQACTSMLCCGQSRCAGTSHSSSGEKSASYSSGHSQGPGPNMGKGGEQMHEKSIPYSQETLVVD
Nature of the series: Agonist activity at human APJ receptor expressed in HEK293 cells assessed as compound stimulated inhibition of forskolin stimulated cAMP production incubated for 30 mins and measured by fluorescence based assay. The class given is functional, cell-based.

A short description of series [1]: Metabolic stability in human liver microsomes incubated for 10 mins and assessed as compound remaining. The class given is ADME, Microsome. The note with it: read-out: Stability.
A short description of series [2]: Metabolic stability in rat liver microsomes incubated for 10 mins and assessed as compound remaining. It counts as ADME, Microsome. The conditions noted are these: read-out: Stability.
Series [3] in a line: Cmax in rat at 1 mg/kg, po. It counts as ADME, organism-based. Set-up: dose 1 mg/kg, route po. The note with it: in vivo.
Series [4] is described as follows: AUC in rat at 1 mg/kg, po. It counts as ADME, organism-based. The arrangement: dose 1 mg/kg, route po. The conditions noted are these: in vivo.

Consider `CCCCc1nc(O)c(C(=O)N2CC[C@H](c3ccccc3)C2)c(O)c1N1CCc2ccccc21`, for which the concentration giving a half-maximal response (EC50) on Apelin receptor was 0.021 µM.
Consider `CCCCc1nc(O)c(C(=O)N2CCC(c3ncc(F)cc3F)C2)c(O)c1N(CC)c1ccccc1` (stereo unspecified), for which, on Apelin receptor, the concentration giving a half-maximal response (EC50) worked out at 0.00024 µM.
Take `CCN(c1ccccc1)c1c(-c2cccc(C)c2)nc(O)c(C(=O)N2CCC(c3ncc(F)cc3F)C2)c1O` (stereo unspecified): the 50% effective concentration (EC50) on Apelin receptor turned out to be 0.0001 µM. The remaining at 10 min was 57% in series [1] and 7% in series [2].
Turning to `CCCCc1nc(O)c(C(=O)N2CC[C@H](c3ccccc3)C2)c(O)c1N(C)c1ccccc1OC`, the EC50 on Apelin receptor was greater than 0.075 µM.
With `CCCCc1nc(O)c(C(=O)N2CC[C@H](c3ccccc3)C2)c(O)c1N(C)c1ccc(OC)cc1`, the EC50 on Apelin receptor worked out at 0.062 µM.
Regarding `CCCCc1nc(O)c(C(=O)N2CCC(c3ncc(Cl)cc3F)C2)c(O)c1N(CC)c1ccccc1` (stereo unspecified), the EC50 on Apelin receptor was found to be 0.00024 µM. Besides, the remaining at 10 min in series [1] worked out at 53%; in series [2] it was 12%.
For the molecule `CCN(c1ccccc1)c1c(CC2CC2)nc(O)c(C(=O)N2CCC(c3ncc(F)cc3F)C2)c1O` (stereo unspecified), on Apelin receptor, the EC50 was found to be 0.013 µM.
As to `CCN(c1ccccc1)c1c(-c2ccn(C)n2)nc(O)c(C(=O)N2CCC(c3ncc(F)cc3F)C2)c1O` (stereo unspecified), at Apelin receptor, the EC50 is 0.0003 µM. Further, the values for the remaining at 10 min in series [1] and in series [2] were 87% and 82%, respectively. This molecule also gave a Cmax in series [3] of 5.2 µM. Moreover, the AUC in series [4] is 4.8 µM·h.
Take `CCCCc1nc(O)c(C(=O)N2CC[C@H](c3ccccc3)C2)c(O)c1N(C)c1cccc(OC)c1`: the EC50 on Apelin receptor is greater than 0.075 µM.
Consider `CCCCc1nc(O)c(C(=O)N2CC[C@@H](c3ccccc3)C2)c(O)c1N(CC)c1ccccc1`, for which the EC50 on Apelin receptor was determined as 0.012 µM. The values for the remaining at 10 min in series [1] and in series [2] were 56% and 17%, respectively.
For `CCCCc1nc(O)c(C(=O)N2CCC(c3ccccc3F)C2)c(O)c1N(CC)c1ccccc1` (stereo unspecified), the EC50 on Apelin receptor was determined as 0.0084 µM.
Same read-out and setting: under `CCCCc1nc(O)c(C(=O)N2CCN(Cc3cccc(Cl)c3Cl)CC2)c(O)c1N(CC)c1ccccc1` stands 0.016 µM.
Regarding `CCCCc1nc(O)c(C(=O)N2CCC(c3ccc(Cl)cn3)C2)c(O)c1N(CC)c1ccccc1` (stereo unspecified), on Apelin receptor, the EC50 is 0.00028 µM. The values for the remaining at 10 min in series [1] and in series [2] were 62% and 26%, respectively.
On to `CCCCc1nc(O)c(C(=O)N2CC[C@H](c3ccccc3)C2)c(O)c1N(CC)c1ccccc1`, for which, on Apelin receptor, the EC50 came to 0.013 µM. For the same molecule, the remaining at 10 min amounted to 27% in series [1] and 7% in series [2].
As to `CCCCc1nc(O)c(C(=O)N2CC[C@H](c3ccccc3)C2)c(O)c1N(c1ccccc1)C(C)C`, at Apelin receptor, the EC50 was 0.035 µM.
For the molecule `CCCCc1nc(O)c(C(=O)N2CC[C@H](c3ccccc3)C2)c(O)c1N1CCCc2ccccc21`, the EC50 on Apelin receptor was greater than 0.15 µM.
As to `CCCCc1nc(O)c(C(=O)N2CC[C@H](c3ccccc3)C2)c(O)c1N(C)c1ccccc1`, on Apelin receptor, the EC50 was found to be 0.038 µM.
